A short description of data set [1]: analgesic activity: hot plate reaction time. The data set is classed as in vivo, male mice. The conditions noted are these: mice; dose ranging from 38 mg. to about 220 mg. How it is done: The method determines the reaction time of mice dropped onto a hot plate maintained at 55±0.5° C. Six groups of male mice (5 mice/group) weighing between 20-30 grams are utilized. The initial reaction time of these mice is determined once, and the reaction time of each group is then averaged. The mice are then administered the vehicle and/or the compound to be tested by the oral, intraperitoneal or subcutaneous route. The average reaction time of each group is determined again at 30, 60 and 90 minutes after compound administration and is compared to controls. Reaction time is recorded as percent changes from control. All groups are averaged before and after treatment. A combined reaction time average (recorded as percent change of reaction time threshhold from controls) for all three periods is plotted against dose on graph paper, and a curve is drawn. The ED 50 is read from this curve.

Data set [2] is described as follows: antipyretic activity: Brewer's yeast foot injection, foot and rectal temperatures. In kind it is in vivo, male rats. The conditions noted are these: rats; 200 mg/kg. The procedure:
Control animals are given 1 cc/100 g. body weight of the vehicle. The test drug animals are given 200 mg/kg. of the drug in a concentration of 2 percent. Soluble and insoluble compounds are administered orally in aqueous suspended vehicle. One hour after administration of drug, these rats are injected with 0.1 ml. of a 2 percent suspension of Brewer's yeast beneath the plantar surface of the foot. Two hours after drug injections and 1 hour after the irritant, the temperatures of the inflammed foot, the normal foot and the rectum are recorded with the help of a thermocouple. Results are reported as degrees change from controls. The temperatures are averaged for the inflamed foot, the normal foot and the rectum. The averages for the treated groups are compared with the control averages and the results noted as degrees change from control.

The nature of data set [3]: LD50 p.o. in mice (acute toxicity). The data set is classed as in vivo.

Structures are written as SMILES.

As for `O=C(O)C1CCc2c([nH]c3ccc(Cl)cc23)C1` (stereo not drawn) [6-chloro-1,2,3,4-tetrahydrocarbazole-2-carboxylic acid], in data set [1], the analgesic activity entry was “analgesic activity is observed”. The antipyretic activity entry in data set [2] is “antipyretic activity is observed”. The same compound registered an LD50 in data set [3] of 1120 mg.

The record behind these values is US4009181A, “Cyclopenta[b]indole-2-carboxylic acids and derivatives thereof” (Hoffmann-La Roche Inc., priority 1974, dated 1977).
